In patent publication US9132104B2, “Fortification of nutritional products with olive extracts containing hydroxytyrosol and hydroxytyrosol fortified nutritional products” (PROBELTE PHARMA S.A., priority 2007, dated 2015):

Test system: male Sprage Dawley rats
Assay: L-NAME induced hypertension model, arterial blood pressure by tail-cuff method (Example 11)
Format: in vivo
Conditions: rat, L-NAME 40 mg/Kg in drinking water, oral gavage 100 mg/Kg (group 6, positive control)
Procedure: Thirty-six male Sprage Dawley rats (weight aprox. 200 at the beginning of the experiment) were obtained from Harlan Interfauna Iberica SA (Barcelona, Spain) and maintained during all the experiment in the installations of the animalary service at the University of Murcia. The animals were randomly distributed into six experimental groups of 6 rats each one, housed under standard conditions of lighting (day/night cycles of 12 h), temperature (22±2° C.) and humidity (60%).
During the setting period and the experimental periods, rats were feed on a solid standard diet for rats (Panlab). Drinking water and food were available ad libitum. After an setting period of 7 days, treatments according the experimental design were started.
In order to determine the effect of fortified extra virgin olive oil (evoo added with the olive extract according to the present invention) N-nitro-L-arginine-methylester (L-NAME) induced hypertension model was used.
Arterial blood pressure was measured with a periodicity according the above cronogramme, by the tail-cuff method. Before the measurement, rats were kept at 37° C. for 10 min to make the pulsations of the tail artery detectable. […] The arterial blood pressure measurements were performed at the same time of the day in order to avoid any influence of the circadian cycle.

C[C@H](CS)C(=O)N1CCC[C@H]1C(=O)O [Captopril]
systolic blood pressure: significant reduction of the blood pressure values
